# Results reported in patent US5047242A, “Azadirachtin derivative insecticides” (Native Plant Institute ("NPI"), priority 1987, dated 1991).
# “Also recorded” adds a separate entry of the source.
# Legend:
# [1] = tested on: Heliothis virescens; assay: Artificial diet feeding bioassay, mortality and growth inhibition in first-instar larvae; type: in vivo, Heliothis virescens (tobacco budworm)
# From the text: The results of the growth inhibitory and lethal activities of azadirachtin and these 8 derivatives when fed in an artificial diet to Heliothis virescens larvae are shown in Table 1. Similar to the results of Morgan, E. D., in "Natural pesticides from the Neem tree (Azadirachta indica A. Juss), Schmutterer, H., et al., Eds., Proc. First International Neem Conference (Rottach-Egern, 1980), German Agency for Technical Corporation,Eschborn, Germany, 1982, pps. 43-52 (hereinafter "Morgan"), neither deacetylation nor hydrogenation of the carbon-carbon double bond of the dihydrofuran ring moiety of azadirachtin had any significant effect on activity of the compound against H. virescens.
# Mortality and growth inhibition in first-instar Heliothis
# virescens larvae fed azadirachtin and eight derivatives in an
# artificial diet (I. Kubo and J. A. Klocke, In: Plant Resistance to
# Insects (P. A. Helin, Ed.), ACS Symposium Series 208, American Chemical
# Society, Washington, D.C. (1983), pp. 329-346.).^a
# ^b LC50 values are the concentrations (ppm) causing 50%
# ^c EC50 values are the concentrations (ppm) causing 50% growth
# ^d Numbers in parentheses are the 95% confidence limits determined
# using the methods of Litchfield and Wilcoxon, J. Pharmacol. Exp. Ther.
# An artificial diet feeding bioassay with neonate larvae of tobacco budworm (Heliothis virescens) and fall armyworm (Spodoptera frugiperda) was used as previously described (Kubo and Klocke, 1983) to detect insecticidal activities in the plant extracts to monitor fractionation, and to determine the potency of the isolated constituents and derivatives. Potency was determined either as the effective concentration (EC50) of added material that is necessary to reduce larval growth to 50% of the control values or as the lethal concentration (LC50) of added material that is necessary to kill 50% of the treated larvae. EC50 and LC50 values were determined from log probit paper and analyzed statistically by the method of Litchfield and Wilcoxon, supra.
# [2] = tested on: insects; conditions: literature; cited from earlier work
# [3] = tested on: Heliothis virescens; assay: Oral injection of fifth-instar larvae, pupal and adult development (non-irradiated compounds); type: in vivo
# Procedure: (§1) Individual larvae were injected per os on the first day of the fifth instar with 1.0 μg of either irradiated or non-irradiated compounds dissolved in 1.0 μl of 75% aqueous ethanol.
# Table 2: Successful and unsuccessful pupal and adult development of
# fifthinstar Heliothis Virescens larvae injected orally with 1.0 microgram
# of either azadirachtin, 3deacetylazadirachtin, 22,23dihydroazadirachtin,
# or 2',3',22,23tetrahydroazadirachtin.
# [4] = tested on: Heliothis virescens; assay: Relative activity of UV-irradiated compounds in inhibiting pupal development of fifth-instar larvae; type: in vivo; conditions: for Relative activity, inhibition of pupal development: relative to non-irradiated counterpart
# Procedure: (§2) Azadirachtin, 3-deacetylazadirachtin, 22,23-dihydroazadirachtin, and 2',3',22,23-tetrahydroazadirachtin (1.0 mg/ml absolute ethanol) were placed individually in capped quartz NMR tubes (5×180 mm) and were irradiated with two UV germicidal lights (GE, G30T8, 200-280 nm, 30W) 1.8 m from the source at room temperature for up to 400 h. The controls were identical samples protected from exposure to UV radiation by wrapping with aluminum foil. At selected time intervals, aliquots from both the controls (non-irradiated) and irradiated samples were removed for high-performance liquid chromatography (HPLC) analysis and bioassay (vide infra).
# as §1
# Table 3: Relative activity of azadirachtin, 3deacetylaza-dirachtin,
# 22,23dihydroazadirachtin, and 2',3',22,23tetrahydroazadirachtin, all of
# which had been exposed for 15, 30, 90, 200, and 400 hours to UV radiation
# inhibiting the pupal development of fifthinstar Heliothis virescens
# (§3) larvae. Relative activity is defined as the percentage of larvae injected
# [5] = tested on: Heliothis virescens; assay: Relative activity of UV-irradiated compounds in inhibiting adult development of fifth-instar larvae; type: in vivo; conditions: for Relative activity, inhibition of adult development: relative to non-irradiated counterpart
# Procedure: as §2, §1
# Table 4: Relative activity of azadirachtin, 3deacetylaza-dirachtin,
# 22,23dihydroazadirachtin, 2',3',22,23tetrahydroaza-dirachtin, all of whic
# had been exposed for 15, 30, 90, 200, and 400 hours to UV radiation, in
# inhibiting the adult development of fifthinstar Heliothis virescens
# as §3
# relative to the percentage injected with its nonirradiated counterpart
# [6] = tested on: insects; assay: Antifeedant / systemic action; conditions: in vivo
# [7] = UV stability in ethanol by reversed phase HPLC; type: physicochemical
# Procedure: Stability of Azadirachtin derivatives was determined as follows:
# as §2
# Analytical reversed phase HPLC was performed on a phenyl (5μm) column run isocratically with acetonitrile-water (3:7) (Yamasaki et al.) Peaks were detected at 214 nm. The irradiated samples were compared with their corresponding non-UV-irradiated controls by measuring the height of the peak eluting at the appropriate Rt for each irradiated compound relative to each one's non-irradiated control. Results are expressed as the percent of the initial sample concentration remaining relative to the control. Each time point was done in at least triplicate fashion.
# [8] = 1.0 microgram injected orally, fifth-instar, non-irradiated
# [9] = 1.0 microgram injected orally, % of larvae
compound,measurement,setting,value
C/C=C(\C)C(=O)O[C@H]1C[C@@H](OC(C)=O)[C@@]2(C(=O)OC)CO[C@H]3[C@@H](O)[C@@](C)([C@]45O[C@@]4(C)[C@H]4C[C@@H]5O[C@@H]5OC=C[C@@]54O)[C@H]4[C@]1(CO[C@]4(O)C(=O)OC)[C@@H]32 [azadirachtin],LC50,"[1]; Heliothis virescens, po, read-out: LC50 (concentration causing 50% mortality)",0.8 µg/mL
same,EC50 (concentration causing 50% growth inhibition),"[1]; Table 1, first-instar Heliothis virescens larvae, artificial diet, parentheses = 95% confidence limits",0.07 (0.05-0.10) ppm
same,ecdysis inhibitory activity (in words),[2],potent ecdysis inhibitory activity; also recorded: same ecdysis inhibitory activity
same,Number Adults,[3]; [8],2 Number
same,Number Adults Deformed,[3]; [8],1 Number
same,Number Pupae,[3]; [8],10 Number
same,Unsuccessful Larvae-Pupae (number),[3]; [8],5 Number
same,Unsuccessful Pupae-Adult (number),[3]; [8],0 Number
same,Adults (%),[3]; [9],1.3%
same,Adults Deformed (%),[3]; [9],0.7%
same,Pupae (%),[3]; [9],6.7%
same,Unsuccessful Larvae-Pupae (%),[3]; [9],3.4%
same,Unsuccessful Pupae-Adult (%),[3]; [9],0%
same,mortality at 0.001 mg,"[3]; Heliothis virescens, light or radiation study, po, read-out: % Mortality Prior to Adult Stage",98.7%
same,inhibition of pupation (in words),"[3]; non-irradiated, 1.0 μg per os",equally effective
same,"Relative activity, inhibition of pupal development",[4]; 15 h UV exposure,98.6%
same,"Relative activity, inhibition of pupal development",[4]; 30 h UV exposure,98.9%
same,activity retained after 90 h of exposure to UV radiation (in words),[4]; 90 h UV,retained full activity
same,"Relative activity, inhibition of pupal development",[4]; 90 h UV exposure,85.7%
same,ability to inhibit pupation after UV (in words),[4]; 200 h UV,did decline
same,"Relative activity, inhibition of pupal development",[4]; 200 h UV exposure,74.2%
same,ability to inhibit pupation after UV (in words),[4]; 400 h UV,even greater decline
same,activity retained after 400 h of exposure to UV radiation,[4]; 400 h UV,approximately 50%
same,"Relative activity, inhibition of pupal development",[4]; 400 h UV exposure,60.0%
same,ability to inhibit pupation after UV (in words),[4]; up to 90 h UV,not appreciably reduced
same,"Relative activity, inhibition of adult development",[5]; 15 h UV exposure,101.3%
same,"Relative activity, inhibition of adult development",[5]; 30 h UV exposure,101.3%
same,"Relative activity, inhibition of adult development",[5]; 90 h UV exposure,97.3%
same,ability to inhibit larvae from reaching the adult stage after UV (in words),[5]; 200 h UV,declined sligtly
same,"Relative activity, inhibition of adult development",[5]; 200 h UV exposure,89.7%
same,"Relative activity, inhibition of adult development",[5]; 400 h UV exposure,81.1%
same,antifeedant function (in words),[6],function as antifeedants
same,degraded after 90 h of exposure to UV radiation,[7]; 90 h UV,more than 80%
same,degradation following 400 h of exposure to UV radiation (in words),[7]; 400 h UV,none of the three compounds remained in their original state
same,T1/2 of UV degradation,"[7]; UV 200-280 nm, 1.0 mg/ml ethanol, room temperature",25 h
same,UV lability (in words),"[7]; UV irradiation, HPLC",UV-labile
same,kinetics of UV degradation (in words),"[7]; under the conditions used, data not shown",first-order reaction
